Activity calls are given as the source filed them. The rule behind the calls is not given here.
What was measured:
RS4-11 [1] = assay: Downregulation of MDM2 level in human RS4;11 cells harbouring wild type p53 at 10 to 300 nM measured after 2 hrs by Western blot analysis; format: functional, cell-based; settings: dose 10-300 nM
RS4-11 [2] = assay: Upregulation of p53 level in human RS4;11 cells harbouring wild type p53 at 10 to 300 nM measured after 2 hrs by Western blot analysis; format: functional, cell-based; settings: dose 10-300 nM
RS4-11 [3] = assay: Antiproliferative activity against human RS4;11 cells harbouring p53 mutant assessed as inhibition of cell growth measured after 4 days by WST-8 assay; format: functional, cell-based; settings: RS4-11, 96 h
[4] = Toxicity in female NOD-SCID mouse assessed as effect on body weight at 50 mg/kg, iv qd; format: organism-based; settings: in vivo
RS4-11 [5] = assay: Antitumor activity against human RS4;11 cells xenografted in SCID mouse model assessed as tumor regression at 50 mg/kg, iv qd administered every other for 2 weeks by caliper method relative to control; format: functional
RS4-11 [6] = assay: Antiproliferative activity against human RS4;11 cells harbouring p53 wild type assessed as inhibition of cell growth measured after 4 days by WST-8 assay; format: functional, cell-based; settings: RS4-11, 96 h
RS4-11 [7] = assay: Antiproliferative activity against human RS4;11 cells assessed as inhibition of cell growth measured after 4 days by WST-8 assay; format: functional, cell-based; settings: RS4-11, 96 h
MV4-11 [8] = assay: Antiproliferative activity against human MV4-11 cells assessed as inhibition of cell growth measured after 4 days by WST-8 assay; format: functional, cell-based; settings: MV4-11, 96 h
RS4-11 [9] = assay: Antitumor activity against human RS4;11 cells xenografted in female NOD-SCID mouse model assessed as tumor regression at 50 mg/kg, iv administered every other day for 2 weeks by vernier method relative to control; format: functional
MV4-11 [10] = assay: Antiproliferative activity against human MV4-11 cells assessed as inhibition of cell growth measured after 4 days in presence of lenalidomide by WST-8 assay; format: functional, cell-based; settings: time 4.0 day
MV4-11 [11] = assay: Upregulation of p53 level in human MV4-11 cells at 1 to 3 nM measured after 2 hrs by Western blot analysis; format: functional, cell-based; settings: dose 1-3 nM
RS4-11 [12] = assay: Antitumor activity against human RS4;11 cells xenografted in female NOD-SCID mouse model assessed as median survival time at 25 mg/kg, iv qw (reference value: 47.5 days); format: functional
[13] = AUC (0 to t) in mouse at 10 mg/kg, iv; format: ADME, organism-based; settings: in vivo
MV4-11 [14] = assay: Downregulation of MDM2 protein level in human MV4-11 cells at 3 nM measured after 2 hrs in presence of lenalidomide by Western blot analysis; format: functional, cell-based
OCI-AML2 = assay: Antiproliferative activity against human OCI-AML2 cells assessed as inhibition of cell growth measured after 4 days by WST-8 assay; format: functional, cell-based; settings: OCI-AML2, 96 h
[15] = Volume of distribution at steady state in mouse at 10 mg/kg, iv; format: ADME, organism-based; settings: in vivo, read-out: Vdss
[16] = Half life in mouse at 10 mg/kg, iv; format: ADME, organism-based; settings: in vivo
[17] = AUC (0 to t) in dog at 2.5 mg/kg, iv; format: ADME, organism-based, Canis lupus familiaris; settings: in vivo
[18] = Upregulation of PUMA mRNA level in human RS4;11 cells assessed as fold change at 10 nM measured after 3 hrs by qRT-PCR analysis; format: functional
SIG-M5 = assay: Antiproliferative activity against human SIG-M5 cells assessed as inhibition of cell growth measured after 4 days by WST-8 assay; format: functional, cell-based; settings: SIG-M5, 96 h
RS4-11 [19] = assay: Effect of p53 mRNA level in human RS4;11 cells at 10 nM by qRT-PCR analysis; format: functional, cell-based
ML-2 = assay: Antiproliferative activity against human ML-2 cells assessed as inhibition of cell growth measured after 4 days by WST-8 assay; format: functional, cell-based; settings: ML-2, 96 h
[20] = Upregulation of PUMA mRNA level in human MV4-11 cells assessed as fold increase at 30 nM by qRT-PCR analysis; format: functional
MOLM-14 = assay: Antiproliferative activity against human MOLM-14 cells assessed as inhibition of cell growth measured after 4 days by WST-8 assay; format: functional, cell-based; settings: MOLM-14, 96 h
MV4-11 [21] = assay: Effect on p53 mRNA level in human MV4-11 cells at 30 nM by qRT-PCR analysis; format: functional, cell-based
RS4-11 [22] = assay: Downregulation of MDM2 protein level in human RS4;11 cells at 3 nM measured after 2 hrs in presence of lenalidomide by Western blot analysis; format: functional, cell-based
[23] = Volume of distribution at steady state in dog at 2.5 mg/kg, iv; format: ADME, organism-based, Canis lupus familiaris; settings: in vivo, read-out: Vdss
RS4-11 [24] = assay: Antitumor activity against human RS4;11 cells xenografted in female NOD-SCID mouse model assessed as median survival time at 50 mg/kg, iv qw (reference value: 47.5 days); format: functional
MV4-11 [25] = assay: Upregulation of p53 protein level in human MV4-11 cells at 3 nM measured after 2 hrs in presence of lenalidomide by Western blot analysis; format: functional, cell-based
MOLM-13 = assay: Antiproliferative activity against human MOLM-13 cells assessed as inhibition of cell growth measured after 4 days by WST-8 assay; format: functional, cell-based; settings: MOLM-13, 96 h
[26] = Toxicity in female NOD-SCID mouse assessed as effect on body weight at 25 mg/kg, iv qd; format: organism-based; settings: in vivo
RS4-11 [27] = assay: Antitumor activity against human RS4;11 cells xenografted in female NOD-SCID mouse model assessed as reduction in tumor size at 25 mg/kg, iv administered every other day for 2 weeks by vernier method relative to control; format: functional; design: scale not given: the % may be the effect or the level left
OCI-AML-5 = assay: Antiproliferative activity against human OCI-AML5 cells assessed as inhibition of cell growth measured after 4 days by WST-8 assay; format: functional, cell-based; settings: OCI-AML-5, 96 h
[28] = Clearance in mouse at 10 mg/kg, iv; format: ADME, organism-based; settings: in vivo
RS4-11 [29] = assay: Upregulation of p53 protein level in human RS4;11 cells at 3 nM measured after 2 hrs in presence of lenalidomide by Western blot analysis; format: functional, cell-based
[30] = Volume of distribution at steady state in rat at 5 mg/kg, iv; format: ADME, organism-based; settings: in vivo, read-out: Vdss
[31] = AUC (0 to t) in rat at 5 mg/kg, iv; format: ADME, organism-based; settings: in vivo
[32] = Half life in dog at 2.5 mg/kg, iv; format: ADME, organism-based, Canis lupus familiaris; settings: in vivo
MV4-11 [33] = assay: Downregulation of MDM2 level in human MV4-11 cells at 3 to 30 nM measured after 2 hrs by Western blot analysis; format: functional, cell-based; settings: dose 3-30 nM
RS4-11 [34] = assay: Antitumor activity against human RS4;11 cells xenografted in female NOD-SCID mouse model assessed as tumor regression at 25 mg/kg, iv measured upto 34 days by vernier method relative to control; format: functional; settings: time <= 34 day
[35] = Half life in rat at 5 mg/kg, iv; format: ADME, organism-based; settings: in vivo
RS4-11 [36] = assay: Downregulation of MDM2 level in human RS4;11 cells at 1 nM measured after 2 hrs by Western blot analysis; format: functional, cell-based
[37] = Upregulation of p21 mRNA level in human MV4-11 cells assessed as fold increase at 30 nM by qRT-PCR analysis; format: functional
RS4-11 [38] = assay: Upregulation of p53 level in human RS4;11 cells harbouring wild type p53 at 1 to 3 nM measured after 2 hrs by Western blot analysis; format: functional, cell-based; settings: dose 1-3 nM
[39] = Clearance in rat at 5 mg/kg, iv; format: ADME, organism-based; settings: in vivo
RS4-11 [40] = assay: Antitumor activity against human RS4;11 cells xenografted in female NOD-SCID mouse model assessed as tumor regression at 25 mg/kg, iv administered every other day for 2 weeks by vernier method relative to control; format: functional
[41] = Clearance in dog at 2.5 mg/kg, iv; format: ADME, organism-based, Canis lupus familiaris; settings: in vivo
RS4-11 [42] = assay: Antiproliferative activity against human RS4;11 cells assessed as inhibition of cell growth measured after 4 days in presence of lenalidomide by WST-8 assay; format: functional, cell-based; settings: time 4.0 day
[43] = Upregulation of MDM2 mRNA level in human RS4;11 cells assessed as fold change at 10 nM measured after 3 hrs by qRT-PCR analysis; format: functional
[44] = Upregulation of p21 mRNA level in human RS4;11 cells assessed as fold change at 10 nM measured after 3 hrs by qRT-PCR analysis; format: functional
OCI-AML-3 = assay: Antiproliferative activity against human OCI-AML-3 cells assessed as inhibition of cell growth measured after 4 days by WST-8 assay; format: functional, cell-based; settings: OCI-AML-3, 96 h

With `O=C(O)c1ccc(NC(=O)[C@@H]2NC3(CCCCC3)[C@@]3(C(=O)Nc4cc(Cl)ccc43)[C@H]2c2cccc(Cl)c2F)cc1` as the compound, how does the Activity (RS4-11 [1]) read?
The Activity was “inactive”.

And the Activity (RS4-11 [2])?
The Activity was “Active”.

Which results are given for `O=C1CCC(N2Cc3c(C#CCCCNC(=O)c4ccc(NC(=O)[C@@H]5NC6(CCCCC6)[C@@]6(C(=O)Nc7cc(Cl)ccc76)[C@H]5c5cccc(Cl)c5F)cc4)cccc3C2=O)C(=O)N1` (stereo partly drawn)?
IC50 (RS4-11 [3]): > 1000 nM; Activity [4]: Non-toxic; Activity (RS4-11 [5]): 100%; IC50 (RS4-11 [6]): 4 nM; IC50 (RS4-11 [7]): 2 nM; IC50 (MV4-11 [8]): 7 nM; Activity (RS4-11 [9]): 100%

With `O=C1CCC(N2Cc3c(C#CC4CCN(C(=O)[C@H]5CC[C@H](NC(=O)[C@@H]6NC7(CCCCC7)[C@@]7(C(=O)Nc8cc(Cl)ccc87)[C@H]6c6cccc(Cl)c6F)CC5)CC4)cccc3C2=O)C(=O)N1` (stereo partly drawn) as the compound, how does the Activity (MV4-11 [10]) read?
The Activity was “inactive”.

What about the Activity (MV4-11 [11]) of the same compound?
The Activity was “Active”.

And the MST (RS4-11 [12])?
Its MST is 78.5 days.

What about the AUC(0-t) [13] of the same compound?
The AUC(0-t) was 156000 ng·h/mL.

And the Activity (MV4-11 [14])?
Its Activity is “inactive”.

And the IC50 (OCI-AML2)?
The IC50 was 24 nM.

What about the Vd [15] of the same compound?
Its Vd is 0.54 L/kg.

And the half-life [16]?
The half-life was 6.1 h.

What about the AUC(0-t) [17] of the same compound?
The AUC(0-t) was 5500 ng·h/mL.

And the “fold change (FC)” value [18]?
Its value is 8.

What about the IC50 (SIG-M5) of the same compound?
The IC50 was 20 nM.

What about the Activity (RS4-11 [19]) of the same compound?
Its Activity is “inactive”.

And the IC50 (ML-2)?
Its IC50 is 1.2 nM.

And the “fold change (FC)” value [20]?
The value was 3.

And the IC50 (MOLM-14)?
The IC50 was 7.6 nM.

What about the Activity (MV4-11 [21]) of the same compound?
The Activity was “inactive”.

And the Activity (RS4-11 [22])?
Its Activity is “inactive”.

And the Vd [23]?
Its Vd is 0.93 L/kg.

And the MST (RS4-11 [24])?
Its MST is 72 days.

What about the Activity (MV4-11 [25]) of the same compound?
The Activity was “inactive”.

And the IC50 (MOLM-13)?
Its IC50 is 5.7 nM.

What about the Activity [26] of the same compound?
Its Activity is “Non-toxic”.

What about the Activity (RS4-11 [27]) of the same compound?
The Activity was >70%.

What about the IC50 (OCI-AML-5) of the same compound?
The IC50 was 23 nM.

What about the clearance [28] of the same compound?
Its clearance is 1.1 mL/min/kg.

What about the Activity (RS4-11 [29]) of the same compound?
The Activity was “inactive”.

What about the Vd [30] of the same compound?
The Vd was 0.15 L/kg.

What about the IC50 (RS4-11 [7]) of the same compound?
The IC50 was 0.7 nM.

And the AUC(0-t) [31]?
The AUC(0-t) was 13000 ng·h/mL.

What about the half-life [32] of the same compound?
Its half-life is 6.3 h.

What about the Activity (MV4-11 [33]) of the same compound?
The Activity was “Active”.

And the Activity (RS4-11 [34])?
The Activity was 100%.

And the half-life [35]?
Its half-life is 5.6 h.

What about the Activity (RS4-11 [36]) of the same compound?
Its Activity is “Active”.

And the “fold change (FC)” value [37]?
The value was 10.

What about the Activity (RS4-11 [38]) of the same compound?
The Activity was “Active”.

And the clearance [39]?
The clearance was 3.2 mL/min/kg.

What about the IC50 (MV4-11 [8]) of the same compound?
The IC50 was 2 nM.

What about the Activity (RS4-11 [40]) of the same compound?
The Activity was 100%.

And the clearance [41]?
The clearance was 7.4 mL/min/kg.

And the Activity (RS4-11 [42])?
The Activity was “inactive”.

And the “fold change (FC)” value [43]?
The value was 8.

What about the “fold change (FC)” value [44] of the same compound?
Its value is 8.

And the IC50 (OCI-AML-3)?
The IC50 was 212 nM.

Reference: ChEMBL document CHEMBL6083271 (J Med Chem, 2024)
